Consider one compound from patent US8846393B2, “Methods of improving stem cell homing and engraftment” (Gamida-Cell Ltd., priority 2005, dated 2014).

One assay has as its system VLA-4. The experiment in a line: Shear flow experiments, VLA4-mediated binding to immobilized VCAM-1. The assay is classed as cell-based, human. Particulars: CD34+ cells cultured with cytokines and nicotinamide. How it is done:
FIG. 3 is a graph showing the effect of nicotinamide on VLA4-mediated binding of cells to immobilized adhesion molecules under shear flow. CD34+ cells cultured as described in FIGS. 1 and 2 hereinabove were assayed for capture and arrest under shear stress, on immobilized VCAM-1 adsorbed as 10 μl dots on polystyrene. Cell settling events, and arrest were analyzed under perfusion (shear stress) by video photography. Assayed cell populations were cells before culture (non-cultured, open circles), cells cultured with cytokines, as described in FIG. 2 (cultured, closed circles), and cells cultured with cytokines and nicotinamide (cultured+NA, closed triangles). […]
Soluble purified seven-domain human VCAM-1, sVCAM-1 was mixed in coating medium (PBS buffered with 20 mM sodium bicarbonate pH, 8.5) with a fixed amount of carrier (2 μg/ml HSA) and adsorbed as 10-μl spots on polystyrene plates (Becton Dickinson and Co, San Jose, Calif., USA) for 2 hours at 37° C., alone or with the indicated amounts of intact or heat-inactivated chemokines. […] VCAM-1 site densities were assessed using ^125I-labeled anti-VCAM-1 mAb, 4B9. […] The entire duration of cell perfusions were recorded on a videotape with a long integration LIS-700 CCD video camera (Applitech Rigicam, Israel) and a Time Lapse SVHS-Video recorder (AG-6730; Panasonic, Japan). […]

The test system of another assay is NOD/SCID mice. The experiment in a line: Transplantation of human CD34+ cells into NOD/SCID mice, engraftment and quantification of SCID repopulating cells. The assay is classed as in vivo. To be noted: for engraftment (mice positively engrafted): 3-weeks with cytokines+NA, 4-weeks post transplantation. An excerpt: FIGS. 4a-4f is a graphic representation of the effect of nicotinamide on homing and engraftment of human hematopoietic cells transplanted into NOD/SCID mice. FIGS. 4a and 4b show the percentage of human (CD45+) cells in the cell populations before transplantation: non-cultured CD34^+ cells (non-cultured, gray ovals), the entire progeny of cultures following 3-week exposure to cytokines alone (cytokines alone, closed ovals), or cytokines and nicotinamide (cytokines+NA, arrows). The percent of engraftment 4 weeks post transplantation was determined by flow cytometry of human CD45 cells in the NOD/SCID marrow (y-axis). The numbers of SCID repopulating cells (SRC) were calculated by plotting the engraftment frequencies at each dose. The resultant curves indicates the estimated frequency of SRCs within non-cultured CD34+ cells (FIG. 4c), culture with cytokines (FIG. 4d) or cytokines and nicotinamide (FIG. 4e). The number shown in each box indicates the calculated frequency of SRCs using the maximum likelihood estimator. […] Mouse bone marrow cells were dually stained with FITC-conjugated anti-CD45 (human) and antibodies to human differentiation markers as indicated. Percentages of dual positive cells are shown within each quadrant. Note the greater than 7 fold enhancement of engraftment in the nicotinamide-treated mice (FIG. 4e), as compared with mice treated with cytokines alone (FIG. 4d); FIGS. 5a-5c are a graphic representation of the effect of nicotinamide (NA) on the engraftment potential of cells cultured under differentiation-promoting conditions. Cultures were initiated with purified cord blood-derived CD34+ cells in medium supplemented with SCF, TPO, IL-6 and FLT3, 50 ng/ml each, and IL-3, 20 ng/ml, with (cytokines+NA, arrows) or without (cytokines, ovals) 10 mM nicotinamide. After 3 weeks, cells were harvested, and transplanted into SCID mice as indicated. Mice were transplanted with 1.25−5×10^4 CD34+ cells or with their progeny following expansion. Mice were sacrificed 4 weeks later and bone marrow cells were analyzed by FACS for the presence of CD34+ (human progenitor) and CD45+ (human) cells. Mice were scored as engrafted when the number of human (CD45+) cells constituted […] of the marrow population. […] FIGS. 4b and 4c show the percentage of total human (CD45+) (FIG. 4b) cells and human progenitor (CD45+CD34+) (FIG. 4c) cells in the bone marrow of mice transplanted with cells derived from culture initiated with 1.25×10^4 CD34+ cells. Note the enhanced engraftment of both total human, and human progenitor cells resulting from nicotinamide treatment. Purified CD34+ cells were cultured in culture bags (American Fluoroseal Co., Gaithersburg, Md.) at 1×10^4 cells/ml in MEMα medium, 10% fetal calf serum (FCS) and cytokines: Thrombopoietin (TPO), interleukin-6 (IL-6), FLT-3 ligand and stem cell factor (SCF), each at a final concentration of 50 ng/ml (Perpo Tech, Inc., Rocky Hill, N.J.), with or without 5 mM nicotinamide (NA) (Sigma Aldrich, Milwaukee, Wis.) and incubated at 37° C. in a humidified atmosphere of 5% CO2 in air. […] Until week 3, the cultures were topped weekly with the same volume of fresh medium and then weekly demi-depopulated. Cell counting, colony forming unit (CFUc) assay and immunophenotype analysis were performed as described hereinbelow. NOD/SCID mice were bred and maintained in sterile intra-ventilated cages (Techniplast, Bugugiatte, Italy). Eight-week-old mice were sub-lethally irradiated as described above. […]

SMILES strings stand for the structures.

Consider `NC(=O)c1cccnc1` [nicotinamide], for which the “percentage of initially settled cells resistant to removal by shear stress” value in the assay on VLA-4 is on record as “significantly enhanced”. Also, the “mice with human (CD45+) cells in bone marrow” value with NOD/SCID mice (IL-3 supplemented cultures (SCF, TPO, IL-6, FLT3, IL-3) with 10 mM nicotinamide, 1.25×10^4 cells, 4 weeks) was 5 out of 5. In the assay with NOD/SCID mice (IL-3 supplemented cultures with 10 mM nicotinamide, 4-weeks after transplantation), the “engraftment of human progenitors (CD45+CD34+)” value is “observed only in mice transplanted with cells cultured with nicotinamide”. Further, in the assay with NOD/SCID mice (culture with nicotinamide and cytokines), the “number of SRCs relative to non-cultured cells” value turned out to be 14 fold. In addition, the “engraftment (mice positively engrafted)” value turned out to be 50% with NOD/SCID mice (progeny of 3×10^3 CB CD34+ cells) and 100% with NOD/SCID mice (progeny of 6×10^3 CD34+ cells).
